Data as given in patent publication US11685741B2, “Fluorescent probes” (University of Massachusetts, priority 2017, dated 2023).

Test system: human fibroblast cells (ws1)
Assay: Confocal imaging of Fe3+ with Rh-PK in ws1 cells
Format: cell-based
Experimental: Human SH-SY5Y neuroblastoma cells and primary fibroblast ws1 cells were obtained from ATCC (American Type Culture Collection). Cells were maintained in a 1:1 mixture of Eagle's Minimal Essential medium (ATCC) and Ham's F12 medium (ATCC) supplemented with 10% fetal bovine serum (FBS, ATCC) without antibiotics and incubated at 37° C. in a humidified 5% CO2 atmosphere. The cells were routinely sub-cultured using 0.05% trypsin-EDTA solution (ATCC). The cells were seeded onto 2-chamber slides for 48 h at 5×10^4 cells/chamber and grown until each chamber was 20-30% confluent. A stock solution of Rh-PK ([…] in […]) was diluted to a concentration of […] in culture medium without FBS. […] The fluorescence responses of the sensor in living cells were measured under a Zeiss LSM 710 laser scanning confocal microscope. […] The REUSE function controlled by Zeiss software was applied to guarantee that all spectra were recorded under the same instrumental conditions.
The ability of Rh-PK to track Fe^3+ in live human fibroblast cells (ws1) was tested via a laser scanning confocal microscope (Zeiss LSM 710). […] Turn on fluorescence was observed, which is likely being triggered by endogenous labile Fe^3+. […]
FIG. 17A to FIG. 17C show the distribution of exchangeable Fe^3+ pools in live fibroblast cells (ws1). […] FIG. 17A is the Rh-PK-Fe3+ fluorescence intensity collected at 547-703 nm (red). […]

SMILES: CCN(CC)c1ccc2c(c1)Oc1cc(N(CC)CC)ccc1C21c2ccccc2C(=O)N1CC/N=C(\C)c1cccc(C(C)=O)n1 [Rh-PK, (E)-2-(2-((1-(6-acetylpyridin-2-yl)ethylidene)amino)ethyl)-3′,6′-bis(diethylamino)spiro[isoindoline-1,9′-xanthen]-3-one]
- fluorescence of Fe^3+-loaded cells versus before loading (10 μM Rh-PK, cells loaded with 50 μM Fe^3+): brighter and more widely distributed fluorescence signals
- fluorescence response after Fe^3+ pre-depletion (SIH 100 μM overnight, then Rh-PK): weaker fluorescence response
